Experimental data published in EP0403398A1, “New thioformamide derivatives” (RHONE-POULENC SANTE, priority 1989, dated 1990).

The compounds below were run on isolated rat aorta (assay: Test A: activity against contractions induced by low K+ concentrations in the isolated rat aorta). Conditions: concentration reducing the 20mM K⁺-induced contraction by 90%; rat thoracic aorta strips denuded of endothelium, Krebs solution, cumulative concentrations; read-out: Activity Test A EC₉₀.
Protocol: The test methods used were adapted from those described by Winslow et al [Eur.J.Pharmacol., 131, 219-228 (1986)] and Karaki [J.Pharmacol. Methods, 18, 1-21 (1987)] for differentiating vaso-relaxant activity. Test A : Activity against contractions induced by low K⁺ concentrations in the isolated rat aorta Thoracic aorta was removed from rats and transverse strips, denuded of endothelium, were suspended in a bath containing Krebs solution. The tension was recorded and a contraction induced by addition of 20mM K⁺ (potassium ion) to the bathing solution. The test compound was added to the bath as a solution in increasing cumulative concentration. The concentration in the bathing solution of the test compound which reduced the K⁺-induced contraction by 90% was determined and expressed in µM as the effective concentration (EC₉₀), given in Table I. Table I

EC90 [nM]	SMILES
3	CNC(=S)[C@]1(c2cccnc2)CCCC[C@H]1NOCc1ccccc1 (racemic) [AA, (±)-trans-2-benzyloxyamino-N-methyl-1-(3-pyridyl)cyclohexanecarbothioamide]
300	CNC(=S)[C@]1(c2cccnc2)CCCC[C@H]1NOC (racemic) [Compound AB, (±)-trans-2-methoxyamino-N-methyl-1-(3-pyridyl)cyclohexanecarbothioamide]
0.03	CNC(=S)[C@]1(c2cccnc2)CCCC[C@H]1N[C@H](C)c1ccccc1 [BD, (2R,1S)-2-[(R)-1-phenylethylamino]-1-(3-pyridyl)cyclohexane-N-methylcarbothioamide]
3	CNC(=S)[C@]1(c2cccnc2)CCCC[C@H]1N[C@H](C)c1cccc2ccccc12 [BE, (2R,1S)-2-[(R)-1-(1-naphthyl)ethylamino] 1-(3-pyridyl)cyclohexane-N-methylcarbothioamide]
